From US6555533B2, “Use of certain substituted caprolactams in treating tumors” (Novartis AG, priority 1998, dated 2003)
Where two headings read alike, the source gives them in different places. Marks after values point to notes of the source that are not given here.

Columns and labels:
[1] = tested on: MDA-MB-435 breast carcinoma; test: Anchorage Dependent Growth Monolayer Assay (ADGMA), MDA-MB-435; type: cell-based, human; conditions: 3-day exposure, MTS readout, read-out: IC50 (average±S.D.) MDA-MB-435
Description: (§1) As indicated above, all of the compounds of formula I, and their corresponding pharmaceutically acceptable acid addition salts, are anti-tumor agents and are, therefore, useful in inhibiting the growth of various lymphomas, sarcomas, carcinomas, myelomas, and leukemia cell lines.
(§2) The ADGMA compares the number of viable cells following a 3-day exposure to a test compound relative to a number of cells present at the time the test compound was added. […] The absorbance at 490 nm (A490) of the formazan derivative is proportional to the number of viable cells. The IC50 for a test compound is the concentration of compound required to reduce the final cell number to 50% of the final control cell number. If cell proliferation is inhibited, the assay further defines compounds as cytostatic (cell number after 3-day compound incubation >cell number at time of compound addition) or cytotoxic (cell number after 3-day compound incubation <cell number at time of compound addition).
The MDA-MB-435 breast carcinoma line was obtained from the American Type Culture Collection (ATCC) and used between passages 4-20 following thawing. MDA-MB-435 breast carcinoma was maintained and plated in DME/F12 medium containing 10% fetal bovine serum, 15 mM HEPES (pH=7.4), 100 units/mL penicillin, and 100 μg/mL streptomycin.
(§3) Cell lines are trypsinized and counted using a Coulter counter to determine plating densities. Cells are then plated in their respective maintenance media (100 μL/well) in 96 well plates at the following densities: MDA-MB-435, 3,000 cells/well; A549 and HCT-116, 700 cells/well; are PC-3, 2500 cells/well. The number of cells plates as determined in preliminary experiments, results in cell densities of 75-90% of confluency by 4 days after plating. Initial cell densities, assayed one day after plating, are roughly 0.15-0.20 absorbance units greater than the media blank. Ninety-six well plates are seeded on day 0 and the test compounds are added on day 1. A control plate is created for each cell line that receives media only in row A and cells in row B. One day following plating, test compounds are added (in a final volume of 100 μL) to the test plates. Control plates receive 10 μL MTS mixture (prepared fresh on day of addition to cell plates at a ratio of 10 μL of a 0.92 mg/mL solution of PMS to a 190 μL of a 2 mg/mL solution of MTS) and 100 μL media. A490 of control plates is read 4 h after MTS addition to determine initial cell density values for each cell line. Three days after addition of test compound, 10 μL/well of MTS mixture is added to the test plates and A490 is read 4 h later. A490 values for wells containing cells are corrected for media absorbance, then normalized to initial density readings to determine percent net growth. IC50 values are determined from graphs of percent net growth as a function of compound concentration. Percent net growth is calculated as (Cell+Drug A490−Initial A490/Cell+Drug Vehicle A490−Initial A490).

[2] = tested on: A549 non-small cell lung carcinoma; test: Anchorage Dependent Growth Monolayer Assay (ADGMA), A549; type: cell-based, human; conditions: 3-day exposure, MTS readout, read-out: IC50 (average±S.D.) A549
Description: as §1, §2
(§4) A549, HCT-116 and PC-3 cells were maintained in RPMI 1640 containing 5% FBS, […], 1 nM β-estradiol, 1 nM testosterone, 100 units/mL penicillin and 100 ug/mL streptomycin.
as §3

[3] = tested on: HCT-116 colon carcinoma; test: Anchorage Dependent Growth Monolayer Assay (ADGMA), HCT-116; type: cell-based, human; conditions: 3-day exposure, MTS readout, read-out: IC50 (average±S.D.) HCT-116
Description: as §1, §2, §4, §3

[4] = tested on: PC-3 prostate carcinoma; test: Anchorage Dependent Growth Monolayer Assay (ADGMA), PC-3; type: cell-based, human; conditions: 3-day exposure, MTS readout, read-out: IC50 (average±S.D.) PC-3
Description: as §1, §2, §4, §3

[5] = tested on: MDA-MB-435 tumor xenografts; test: MDA-MB-435 breast carcinoma xenograft model; type: in vivo, athymic (nu/nu) mice
Description: Positive controls are carried out with doxorubicin administered 3 times per week i.v.
The following results were obtained for compounds of Ex.1-Ex.12 tested against MDA-MB-435 tumor xenografts 3×/week for 3 weeks: […]

[6] = tested on: A549 tumor xenografts
Text: Utilizing this model, one can measure the ability of test compounds to inhibit the growth of human tumor xenografts growing subcutaneously (s.c.) in athymic nude mice. The histologic tumor types employed were MDA-MB-435 breast, A549 non-small cell lung, HCT-116 colon and PC-3 prostate carcinomas.
A549 non-small cell lung carcinoma xenograft model: Briefly, 10 million cells were implanted s.c. into the right flank of athymic (nu/nu) mice, and were allowed to grow until a mass of approximately 120 mm^3 was established. The test compounds are administered three times per week intravenously (i.v.) for three weeks in 5% dextrose, 10%DMSO in water. The test compounds are administered in dose-response fashion in order to evaluate and document the full potential range of activity (efficacy and toxicity) for a given compound. Positive controls are carried out with mitomycin C administered 3 times per week intraperitioneally (i.p.).
Toxicity was monitored by recording average group body weights twice weekly, and by daily observation of general health. Efficacy was monitored by taking measurements of tumor length, width, and depth weekly using digital calipers coupled to automated data collectors. Mean tumor volume (MTV) at initiation of therapy was subtracted from final MTV in order to express the actual tumor growth during treatment (ΔMTV). Anti-tumor activity was expressed as %T/C (ΔMTV of treated group÷ΔMTV of control group×100). Regressions were calculated using the formula: (T/T0−1)×100%, where T is the tumor volume for the treatment group at the end of the experiment, and T0 is the tumor volume at the beginning of the experiment. Statistical significance was evaluated using a one-tailed Student's t-test (p<0.05).

[7] = tested on: HCT-116 tumor xenografts; test: HCT-116 colon carcinoma xenograft model; type: in vivo, athymic (nu/nu) mice
Description: Positive controls are carried out with 5-fluorouracil administered 1 time per week i.v.

[8] = H2O solubility; type: physicochemical; conditions: water; for Example 1 stated for the solid before preparative hplc
[9] = tested on: PC-3 tumor xenografts; test: PC-3 prostate carcinoma xenograft model; type: in vivo, athymic (nu/nu) mice
[10] = 10 μmol/kg i.v. 3×/week for 3 weeks
[11] = 33 μmol/kg i.v. 3×/week for 3 weeks
[12] = 100 μmol/kg i.v. 3×/week for 3 weeks

SMILES | % T/C [5, 10] | Dead/Total [5, 10] | % T/C [5, 11] | Dead/Total [5, 11] | % T/C [6, 11] | Dead/Total [6, 11] | Δ MTV [6, 11] | Dead/Total [6, 12] | Δ MTV [6, 12] | % T/C [7, 10] | Dead/Total [7, 10] | Δ MTV [7, 10] | % T/C [7, 11] | Dead/Total [7, 11] | Δ MTV [7, 11] | % T/C [7, 12] | Dead/Total [7, 12] | Δ MTV [7, 12] | further results
CO[C@@H](C(=O)N[C@H]1CC[C@@H](OC(=O)C2CCCC2)CNC1=O)[C@H](O)[C@@H](O)[C@H](O)/C=C/C(C)(C)C [Ex. 2] | 67% | 0/8 | 13* % | 0/8 | 37* % | 0/8 | 28 mm^3 | 0/7 | 7 mm^3 | 75% | 0/8 | 303 mm^3 | 56* % | 0/8 | 225 mm^3 | 25* % | 0/8 | 102 mm^3 | IC50 [1]: 128 ± 47 nM; IC50 [2]: 201 ± 100 nM; IC50 [3]: 120 ± 29 nM; IC50 [4]: 145 ± 53 nM; % T/C [6, 10]: 58%; Dead/Total [6, 10]: 0/8; Δ MTV [6, 10]: 44 mm^3; % T/C [6, 12]: 9* %; H2O solubility [8]: 18 mg/mL
CO[C@@H](C(=O)N[C@H]1CC[C@@H](OC(=O)CCc2ccccc2)CNC1=O)[C@H](O)[C@@H](O)[C@H](O)/C=C/C(C)(C)C [Ex. 4, (2R, 3R, 4S, 5R, 6E)-3,4,5-Trihydroxy-2-methoxy-8,8-dimethyl-N-[(3S, 6R)-hexahydro-2-oxo-6-(1-oxo-3-phenylpropoxy)-2H-azepin-3-yl]non-6-enamide] | 53* % | 0/8 | 12* % | 0/8 | 17* % | 0/8 | 13 mm^3 | 1/8 | −10 mm^3 | 70* % | 0/8 | 280 mm^3 | 22* % | 0/8 | 87 mm^3 | 11* % | 1/8 | 44 mm^3 | IC50 ([1]; Homo sapiens, MDA-MB-435, 72 h): 12 ± 14 nM; IC50 ([2]; Homo sapiens, A549, 72 h): 20 ± 9 nM; IC50 ([3]; Homo sapiens, HCT-116, 72 h): 7 ± 3 nM; IC50 ([4]; Homo sapiens, 72 h): 7 ± 4 nM; % regression [5, 12]: 58 regression* %; Dead/Total [5, 12]: 0/8; Δ MTV [5, 12]: −23 mm^3; % regression [6, 12]: 22 regression* %; % T/C [9, 10]: 77%; Dead/Total [9, 10]: 0/8; Δ MTV [9, 10]: 1722 mm^3; % T/C [9, 11]: 29%; Dead/Total [9, 11]: 0/8; Δ MTV [9, 11]: 638 mm^3; % T/C [9, 12]: 4* %; Dead/Total [9, 12]: 0/8; Δ MTV [9, 12]: 100 mm^3
